# Patent US9617259B2, “Histone deacetylase inhibitors and compositions and methods of use thereof” (CHDI Foundation, Inc., priority 2013, dated 2017)
# What was measured:
# Jurkat E6-1 cells = test: Inhibition of cellular HDAC activity in Jurkat E6-1 cells, fluorogenic substrate Boc-Lys(Tfa)-AMC; format: cell-based; conditions: read-out: Cell IC50
# Source text: Analysis of Inhibition of Cellular HDAC Activity with Class IIa Histone Deacetylase (HDAC) Inhibitors
# The potency of Class IIa Histone Deacetylase (HDAC) inhibitors is quantified by measuring the cellular histone deacetylase enzymatic activity using the fluorogenic substrate, Boc-Lys(Tfa)-AMC. After penetration in Jurkat E6-1 cells, the substrate is deacetylated to Boc-Lys-AMC. After cell lysis and cleavage by trypsin, the fluorophore AMC is released from the deacetylated substrate only. The fluorescence of the sample is directly related to the histone deacetylase activity in the sample.
# Jurkat E6.1 cells are cultured according to standard cell culture protocols in Jurkat E6.1 Growth Media (RPMI without phenol red, 10% FBS, 10 mM HEPES, and 1 mM Sodium Pyruvate). Jurkat E6.1 cells are counted using a Coulter Counter and resuspended in Jurkat E6.1 growth media at a concentration of 75,000 cells/35 μl. 35 μl or 75,000 cells is seeded into Greiner microtitre assay plates. The plates are then incubated at 37° C. and 5% CO2 while other assay components are being prepared. […]
# 5 μl of each solution of 1:20 diluted compound from above is transferred to the Greiner microtitre assay plates with 75,000 cells/well using the Bravo. […] Finally the top read fluorescence (Excitation: 355 nm, Emission: 460 nm) is measured using PerkinElmer EnVision.
# [1] = biological target: human catalytic domain HDAC4 protein (amino acids 648-1032) (Homo sapiens (Human), UniProt P56524); test: Inhibition of HDAC4 catalytic domain enzymatic activity, fluorogenic substrate Boc-Lys(Tfa)-AMC; conditions: read-out: Biochemical HDAC-4 IC50
# Source text: Analysis of Inhibition of HDAC4 with Class IIa Histone Deacetylase (HDAC) Inhibitors
# The potency of Class IIa Histone Deacetylase (HDAC) inhibitors is quantified by measuring the Histone Deacetylase 4 (HDAC4) catalytic domain enzymatic activity using the fluorogenic substrate, Boc-Lys(Tfa)-AMC. The substrate is deacetylated to Boc-Lys-AMC by HDAC4. Cleavage by trypsin results in the release of the fluorophore AMC from the deacetylated substrate. The fluorescence of the sample is directly related to the histone deacetylase activity in the sample.
# Serial dilutions of the HDAC inhibitors and control reference compound (1-(5-(3-((4-(1,3,4-oxadiazol-2-yl)phenoxy)methyl)-1,2,4-oxadiazol-5-yl)thiophen-2-yl)-2,2,2-trifluoroethanone) are made by first resuspending the lyophilized compound to a final concentration of 10 mM in 100% dimethyl sulfoxide (DMSO). Stocks of 60 μl aliquots of the 10 mM compound in DMSO are prepared and stored at −20° C. From one stock aliquot of each compound to be tested and the reference compound, a 16-point serial dilution is prepared according to
# 2 μl (200×) of each diluted solution and each control (full activity: 100% DMSO alone or full inhibition 1 mM) is stamped into V-bottomed polypropylene 384-well compound plates using either the Bravo (384-well head from Agilent) or 12.5 μl 16-channel Matrix multi-channel pipette (Matrix Technologies Ltd).
# A working solution of enzyme is prepared from a 500 μg/ml stock aliquot of HDAC4 catalytic domain (thawed on ice) diluted to 0.2 μg/ml with assay buffer (50 mM Tris-HCl, 137 mM NaCl, 2.7 mM KCl, and 1 mM MgCl2 at pH 8 and equilibrated to room temperature) just prior to the addition of the enzyme to the assay.
# 5× (50 μM) substrate is prepared just prior to the addition to the assay. A 1 mM substrate stock is made by diluting a 100 mM Boc-Lys(Tfa)-AMC in DMSO solution 1:100 by adding it drop-wise to assay buffer (equilibrated to room temperature) while vortexing at slow speed to prevent precipitation. The 5× substrate is prepared by diluting the 1 mM substrate solution 1:20 by adding it drop-wise to assay buffer (equilibrated to room temperature) while vortexing at slow speed to prevent precipitation.
# 3× (30 μM) Developer/Stop Solution is prepared just prior to addition to the plate by diluting a stock solution of 10 mM reference compound 1:333 in 25 mg/ml trypsin (PAA Laboratories Ltd.) equilibrated to room temperature.
# 5 μl of each solution of 1:20 diluted compound from above is transferred to a clear bottomed, black, 384-well assay plate using the Bravo or the Janus (384-well MDT head from Perkin Elmer). Using a 16-channel Matrix multi-channel pipette, 35 μl of the working solution of HDAC4 catalytic domain enzyme (0.2 μg/ml in assay buffer) is transferred to the assay plate. The assay is then started by adding 10 μl of 5× (50 μM) substrate to the assay plates using either the Bravo, Janus or 16-channel Matrix multi-channel pipette. The assay plate is then shaken for two minutes on an orbital shaker at 900 rpm (rotations per minute). Next the plate is incubated for 15 minutes at 37° C. The reaction is stopped by adding 25 al of 3× (30 μM) developer/stop solution to the assay plates using either the Bravo, Janus or a 16-channel Matrix multi-channel pipette. Assay plates are then shaken for 5 minutes on an orbital shaker at 1200 rpm. Next, the assay plates are incubated at 37° C. for 1 hour in a tissue culture incubator. Finally, the fluorescence is measured (Excitation: 355 nm, Emission: 460 nm) using PerkinElmer EnVision in top read mode.
# Sequence of human catalytic domain HDAC4 protein (amino acids 648-1032) (P56524 648-1032): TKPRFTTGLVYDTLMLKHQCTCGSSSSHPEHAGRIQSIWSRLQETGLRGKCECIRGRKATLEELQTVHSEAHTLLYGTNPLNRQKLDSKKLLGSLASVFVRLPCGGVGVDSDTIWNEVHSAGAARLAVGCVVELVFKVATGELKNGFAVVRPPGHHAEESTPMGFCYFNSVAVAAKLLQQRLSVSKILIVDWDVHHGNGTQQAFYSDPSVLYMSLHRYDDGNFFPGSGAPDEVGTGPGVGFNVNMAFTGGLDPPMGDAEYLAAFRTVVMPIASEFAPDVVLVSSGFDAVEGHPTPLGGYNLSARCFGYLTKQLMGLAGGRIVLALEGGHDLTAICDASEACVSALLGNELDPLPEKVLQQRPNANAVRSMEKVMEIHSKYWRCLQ
IC50 (Jurkat E6-1 cells),IC50 [1],Structure (SMILES)
> 50000 nM,26800 nM,"Cc1ncc(C2=C[C@@](C(=O)NO)(c3cccc(F)c3C)CC2)cn1 [Example 9, (R)-1-(3-fluoro-2-methylphenyl)-N-hydroxy-3-(2-methylpyrimidin-5-yl)cyclopent-2-enecarboxamide]"
380 nM,–,"Cc1ncc(C2=C[C@](C(=O)NO)(c3cccc(F)c3C)CC2)cn1 [Example 10, (S)-1-(3-fluoro-2-methylphenyl)-N-hydroxy-3-(2-methylpyrimidin-5-yl)cyclopent-2-enecarboxamide]"
–,190 nM,"O=C(NO)[C@]1(c2ccccc2)C=C(c2ccccc2)CC1 [Example 33, (S)—N-hydroxy-1,3-diphenylcyclopent-2-enecarboxamide]"
–,31000 nM,"O=C(NO)[C@@]1(c2ccccc2)C=C(c2ccccc2)CC1 [Example 34, (R)—N-hydroxy-1,3-diphenylcyclopent-2-enecarboxamide]"
–,340 nM,"O=C(NO)[C@]1(c2ccccc2)C=C(c2cncc(F)c2)CC1 [Example 35, (S)-3-(5-fluoropyridin-3-yl)-N-hydroxy-1-phenylcyclopent-2-enecarboxamide]"
–,20 nM,"Cc1ncc(Cl)cc1C1=C[C@](C(=O)NO)(c2cccc(F)c2C)CC1 [Example 36, (S)-3-(5-chloro-2-methylpyridin-3-yl)-1-(3-fluoro-2-methylphenyl)-N-hydroxycyclopent-2-enecarboxamide]"
–,10 nM,"Cc1ncccc1C1=C[C@](C(=O)NO)(c2cccc(F)c2C)CC1 [Example 37, (S)-1-(3-fluoro-2-methylphenyl)-N-hydroxy-3-(2-methylpyridin-3-yl)cyclopent-2-enecarboxamide]"
–,10 nM,"Cc1c(F)cccc1[C@@]1(C(=O)NO)C=C(c2ccc3cnn(C)c3c2)CC1 [Example 38, (S)-1-(3-fluoro-2-methylphenyl)-N-hydroxy-3-(1-methyl-1H-indazol-6-yl)cyclopent-2-enecarboxamide]"
–,30 nM,"Cc1c(F)cccc1[C@@]1(C(=O)NO)C=C(c2ccc3cnn(C(F)F)c3c2)CC1 [Example 39, (S)-3-(1-(difluoromethyl)-1H-indazol-6-yl)-1-(3-fluoro-2-methylphenyl)-N-hydroxycyclopent-2-enecarboxamide]"
–,10 nM,"Cc1c(F)cccc1[C@@]1(C(=O)NO)C=C(c2ccc3scnc3c2)CC1 [Example 40, (S)-3-(benzo[d]thiazol-5-yl)-1-(3-fluoro-2-methylphenyl)-N-hydroxycyclopent-2-enecarboxamide]"
–,20 nM,"Cc1c(F)cccc1[C@@]1(C(=O)NO)C=C(c2cc3ccccc3s2)CC1 [Example 41, (S)-3-(benzo[b]thiophen-2-yl)-1-(3-fluoro-2-methylphenyl)-N-hydroxycyclopent-2-enecarboxamide]"
–,10 nM,"Cc1c([C@@]2(C(=O)NO)C=C(c3ccc4cnn(C)c4c3)CC2)ccc(F)c1F [Example 42, (S)-1-(3,4-difluoro-2-methylphenyl)-N-hydroxy-3-(1-methyl-1H-indazol-6-yl)cyclopent-2-enecarboxamide]"
–,3600 nM,"O=C(NO)C1(c2ccccc2)CC=C(c2cncc(F)c2)CC1 (stereo not shown) [Example 43, 4-(5-fluoropyridin-3-yl)-N-hydroxy-1,2,3,6-tetrahydro-[1,1′-biphenyl]-1-carboxamide]"
–,490 nM,"Cc1c(F)cccc1C1(C(=O)NO)CC=C(c2cncc(F)c2)CC1 (stereo not shown) [Example 44, 3′-fluoro-4-(5-fluoropyridin-3-yl)-N-hydroxy-2′-methyl-1,2,3,6-tetrahydro-[1,1′-biphenyl]-1-carboxamide]"
–,550 nM,"Cc1c(F)cccc1C1(C(=O)NO)CC=C(c2ccc3nccnc3c2)CC1 (stereo not shown) [Example 45, 3′-fluoro-N-hydroxy-2′-methyl-4-(quinoxalin-6-yl)-1,2,3,6-tetrahydro-[1,1′-biphenyl]-1-carboxamide]"
